Assay [1] deals with T1, IR485 (first three N-terminal domains of the human insulin receptor) (Homo sapiens, UniProt P06213, I448T/Q492K/Y171H).
T1 construct: made in house; host or cells: Lec8 mutant CHO cells
In words: ITC titration of hormones, αCT peptides and insulin mimetic peptides against IR485. The class given is binding. As to conditions: for ΔH^0 / −TΔS^0: sample IR485 alone, mean of three ± SEM. From the text: In order to study ligand binding to the first three domains of IR ectodomain, isothermal titration calorimetry (ITC) was used. ITC allowed a direct assay of the interactions between the IR ectodomain classical αCT peptide (residues 704-719; SEQ ID NO: 11) and IR485 (a construct consisting of the first three N-terminal domains of the IR; SEQ ID NO: 10), as well as the interaction between the analogous peptide of human IGF-1R and IR485. At the same time the thermodynamics of binding of the N- and C-terminal segments of the insulin mimetic peptide S519 (Schäffer et al., 2003) to IR485, as well as the binding of S519 itself to IR485 were examined. S519 ([…]; SEQ ID NO: 16) is a 36-residue peptide resulting from the affinity-optimization of two covalently-linked peptides, S371, a so-called “Site 1” peptide, and S446, a so-called “Site 2” peptide (Pillutla et al., 2002). […] Finally, the binding to IR485 of the IR αCT peptide carrying a F714A mutation (residues 704-719, […]; SEQ ID NO: 12) was examined.
The IR485 construct of human IR was expressed in Lec8 mutant CHO cells and purified by gel filtration chromatography as described previously (Lou et al., 2006). IR485 consists of the first 485 residues of the mature human insulin receptor followed by the 16-residue sequence […] (SEQ ID NO: 10), which comprises a serine residue followed by an enterokinase cleavage site and a c-myc epitope tag. The c-myc tag was not removed for the ITC studies described here. IR485 was concentrated to 30 mg/ml in Tris-buffered saline (TBSA; 24.8 mM Tris-HCl (pH 8.0), 137 mM NaCl, 2.7 mM KCl and 0.02% sodium azide) using an Ultrafree centrifugal concentrator (Millipore, USA). Porcine insulin (Sigma-Aldrich, USA) was prepared in a zinc-free-form (termed ZFP-insulin) by extensive dialysis against 0.1% (v/v) acetic acid followed by lyophilization. Human IGF-I was obtained from Novozymes GroPep (Australia) as “receptor grade” material.
The IR classical αCT peptide (residues 704-719, […]; SEQ ID NO: 11), the IGF-1R classical αCT peptide (residues 691-706, […]; SEQ ID NO: 14) as well as the F714A mutant of IR αCT (denoted IR αCT.714A; SEQ ID NO: 12) were obtained from Genscript Corporation (USA) at the >98% level of purity. The S519N20 peptide ([…]; SEQ ID NO: 17) and the S519C16 peptide ([…]; SEQ ID NO: 18) were obtained from AusPep (Australia) at the >90% level of purity. The S519 peptide ([…]; SEQ ID NO: 16) was obtained from Activotec (UK) at the >85% purity. Peptides were prepared by dissolving in 10 mM HCl at ˜4 mg/ml concentration and then diluting with TBSA. Oxidation of peptides S519N20 and S519 (which contain two cysteine residues) was carried out by incubating the respective peptide (prepared at 1 mg/ml in 50 mM ammonium bicarbonate adjusted to pH 8.5 with ammonia solution) in the dark at room temperature for 2 days and then lyophilizing before use. Oxidation was complete as determined by analysis with Ellman's reagent (5,5′-dithiobis-2-nitrobenzoate). All protein concentrations were determined by absorbance measurement at 280 nm using a NanoDrop 1000 spectrophotometer (Thermo Scientific, USA).
ITC experiments were performed using a VP-ITC isothermal titration calorimeter (MicroCal Inc., USA) with the calorimeter cell held at 25° C. All samples were degassed prior to injection or placement into the cell, and the instrument was temperature equilibrated prior to the start of the injections. In all experiments the volume of sample placed in the cell was 1.4 ml and the titrant was injected in 7 μl volumes over 14 s at 3 min intervals, with the total number of injections being 40. The sample contents were stirred at a speed of 310 rpm over the duration of the titration. All titrants (i.e. ZFP-insulin, IGF-I, IR αCT peptide, IGF-1R αCT peptide, IR αCT.714A peptide, S519, S519N20, and […]) were first injected into a solution of TBSA alone in order ascertain the heat of dilution, which was then subtracted from the data of interest as appropriate. […]

For assay [2], the target named is T2, IR485 pre-complexed with a 10-fold molar ratio of IR classical αCT peptide (Homo sapiens, UniProt P06213, I448T/Q492K/Y171H).
T2 construct: host or cells: Lec8 mutant CHO cells (IR485)
T2 sequence (P06213 with tags, fused parts or gaps Y171H/I448T/Q492K limits assumed, other chains not shown): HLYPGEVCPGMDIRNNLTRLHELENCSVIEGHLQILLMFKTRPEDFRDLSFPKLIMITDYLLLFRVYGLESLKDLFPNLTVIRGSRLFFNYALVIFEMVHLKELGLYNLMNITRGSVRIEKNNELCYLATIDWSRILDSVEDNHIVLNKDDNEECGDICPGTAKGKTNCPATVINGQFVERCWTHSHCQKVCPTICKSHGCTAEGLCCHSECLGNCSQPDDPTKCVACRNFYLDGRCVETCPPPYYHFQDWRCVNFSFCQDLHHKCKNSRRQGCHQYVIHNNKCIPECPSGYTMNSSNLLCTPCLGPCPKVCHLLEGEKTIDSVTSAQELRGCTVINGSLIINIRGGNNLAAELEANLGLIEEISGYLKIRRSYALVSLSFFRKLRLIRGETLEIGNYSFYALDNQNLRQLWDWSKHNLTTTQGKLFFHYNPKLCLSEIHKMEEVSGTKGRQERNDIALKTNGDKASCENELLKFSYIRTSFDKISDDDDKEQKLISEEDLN
In words: ITC titration against IR485 pre-complexed with a 10-fold molar ratio of IR αCT peptide. The class given is binding. As to conditions: 25° C., IR485 + 10 × IR-αCT, mean of three ± SEM. The procedure: (§1) The IR485 construct of human IR was expressed in Lec8 mutant CHO cells and purified by gel filtration chromatography as described previously (Lou et al., 2006). IR485 consists of the first 485 residues of the mature human insulin receptor followed by the 16-residue sequence […] (SEQ ID NO: 10), which comprises a serine residue followed by an enterokinase cleavage site and a c-myc epitope tag. The c-myc tag was not removed for the ITC studies described here. IR485 was concentrated to 30 mg/ml in Tris-buffered saline (TBSA; 24.8 mM Tris-HCl (pH 8.0), 137 mM NaCl, 2.7 mM KCl and 0.02% sodium azide) using an Ultrafree centrifugal concentrator (Millipore, USA). Porcine insulin (Sigma-Aldrich, USA) was prepared in a zinc-free-form (termed ZFP-insulin) by extensive dialysis against 0.1% (v/v) acetic acid followed by lyophilization.
Peptides were prepared by dissolving in 10 mM HCl at ˜4 mg/ml concentration and then diluting with TBSA. Oxidation of peptides S519N20 and S519 (which contain two cysteine residues) was carried out by incubating the respective peptide (prepared at 1 mg/ml in 50 mM ammonium bicarbonate adjusted to pH 8.5 with ammonia solution) in the dark at room temperature for 2 days and then lyophilizing before use. […] All protein concentrations were determined by absorbance measurement at 280 nm using a NanoDrop 1000 spectrophotometer (Thermo Scientific, USA).
ITC experiments were performed using a VP-ITC isothermal titration calorimeter (MicroCal Inc., USA) with the calorimeter cell held at 25° C. All samples were degassed prior to injection or placement into the cell, and the instrument was temperature equilibrated prior to the start of the injections. In all experiments the volume of sample placed in the cell was 1.4 ml and the titrant was injected in 7 μl volumes over 14 s at 3 min intervals, with the total number of injections being 40. […] Data were analyzed using the instrument's software incorporated within the Origin 7 software (OriginLab, USA) and in all cases fitted as a single-site interaction using the methodologies outlined in the instrument's manual.
(Isothermal titration calorimetry measures the heat released or taken up as one component is titrated into another.)

The target in assay [3] is human IR (Homo sapiens, UniProt P06213). As to conditions: Schäffer et al., 2003; cited from earlier work.
Chain of human IR (P06213 28-758 limits assumed): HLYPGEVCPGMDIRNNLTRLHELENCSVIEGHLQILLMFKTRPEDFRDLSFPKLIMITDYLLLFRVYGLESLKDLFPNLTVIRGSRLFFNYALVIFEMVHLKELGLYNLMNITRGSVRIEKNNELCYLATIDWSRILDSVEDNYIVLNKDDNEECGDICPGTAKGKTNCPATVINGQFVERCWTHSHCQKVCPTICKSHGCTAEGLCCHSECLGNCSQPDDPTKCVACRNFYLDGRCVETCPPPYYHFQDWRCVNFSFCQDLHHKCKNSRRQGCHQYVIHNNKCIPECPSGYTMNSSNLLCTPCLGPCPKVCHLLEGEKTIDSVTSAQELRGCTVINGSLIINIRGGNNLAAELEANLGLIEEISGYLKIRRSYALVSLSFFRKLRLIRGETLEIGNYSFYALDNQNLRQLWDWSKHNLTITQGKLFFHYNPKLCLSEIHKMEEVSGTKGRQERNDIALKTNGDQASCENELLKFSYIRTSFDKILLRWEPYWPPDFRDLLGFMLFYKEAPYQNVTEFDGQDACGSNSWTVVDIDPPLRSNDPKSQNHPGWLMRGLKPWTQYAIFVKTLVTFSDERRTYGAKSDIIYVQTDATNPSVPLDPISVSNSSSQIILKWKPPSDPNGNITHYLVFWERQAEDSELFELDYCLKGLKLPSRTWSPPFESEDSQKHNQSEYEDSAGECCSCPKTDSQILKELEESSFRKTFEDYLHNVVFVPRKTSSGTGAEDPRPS
Chain of human IR (P06213 763-1382 partner limits assumed): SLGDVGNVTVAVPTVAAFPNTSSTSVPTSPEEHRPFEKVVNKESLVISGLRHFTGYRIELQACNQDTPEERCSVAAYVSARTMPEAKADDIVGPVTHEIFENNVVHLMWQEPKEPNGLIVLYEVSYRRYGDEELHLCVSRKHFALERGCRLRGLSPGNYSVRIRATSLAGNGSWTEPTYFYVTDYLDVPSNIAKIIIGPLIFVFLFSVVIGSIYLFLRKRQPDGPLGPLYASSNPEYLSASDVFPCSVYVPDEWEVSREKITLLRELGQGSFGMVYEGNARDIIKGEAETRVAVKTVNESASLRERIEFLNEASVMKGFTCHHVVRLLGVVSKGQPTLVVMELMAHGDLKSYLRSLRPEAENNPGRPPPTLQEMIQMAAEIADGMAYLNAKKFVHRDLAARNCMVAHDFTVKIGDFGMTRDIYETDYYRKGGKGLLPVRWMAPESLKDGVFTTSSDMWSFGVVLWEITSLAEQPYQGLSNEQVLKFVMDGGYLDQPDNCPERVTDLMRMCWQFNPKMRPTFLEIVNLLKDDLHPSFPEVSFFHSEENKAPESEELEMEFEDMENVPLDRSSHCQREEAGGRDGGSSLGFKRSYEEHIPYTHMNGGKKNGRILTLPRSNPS
For assay [4], the target named is T3, ZFP-insulin (Sus scrofa, UniProt P01315).
T3 construct: purchased Sigma-Aldrich
T3 sequence (P01315 25-54 limits assumed): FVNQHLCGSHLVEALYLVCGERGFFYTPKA
T3 sequence (P01315 88-108 limits assumed): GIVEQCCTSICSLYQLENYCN
Put plainly: ITC titration of IR αCT peptide against ZFP-insulin. Type of assay: binding, Porcine. The following applies: 25° C. The procedure: as §1, with “Porcine insulin (Sigma-Aldrich, USA) was prepared in a zinc-free-form (termed ZFP-insulin) by extensive dialysis against 0.1% (v/v) acetic acid followed by lyophilization.” left out
(§2) Peptides were prepared by dissolving in 10 mM HCl at ˜4 mg/ml concentration and then diluting with TBSA. […] All protein concentrations were determined by absorbance measurement at 280 nm using a NanoDrop 1000 spectrophotometer (Thermo Scientific, USA).
(§3) ITC experiments were performed using a VP-ITC isothermal titration calorimeter (MicroCal Inc., USA) with the calorimeter cell held at 25° C. […] Data were analyzed using the instrument's software incorporated within the Origin 7 software (OriginLab, USA) and in all cases fitted as a single-site interaction using the methodologies outlined in the instrument's manual.

In assay [5] the target is T4, IGF-I (Homo sapiens, UniProt P05019).
T4 construct: purchased Novozymes GroPep (Australia)
T4 sequence (P05019 49-118 limits assumed): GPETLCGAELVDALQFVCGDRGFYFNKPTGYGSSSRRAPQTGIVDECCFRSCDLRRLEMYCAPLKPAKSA
In words: ITC titration of IGF-1R αCT peptide against IGF-I. As to conditions: 25° C. The class given is binding. The procedure:
as §1, with “Porcine insulin (Sigma-Aldrich, USA) was prepared in a zinc-free-form (termed ZFP-insulin) by extensive dialysis against 0.1% (v/v) acetic acid followed by lyophilization.” left out
as §2, §3

The target in assay [6] is T5, IR485 pre-complexed with a 10-fold molar ratio of IGF-1R classical αCT peptide (Homo sapiens, UniProt P06213+P08069, I448T/Q492K/Y171H).
T5 construct: host or cells: Lec8 mutant CHO cells (IR485)
T5 sequence (P06213 with tags, fused parts or gaps Y171H/I448T/Q492K limits assumed, other chains not shown): as the sequence (P06213 with tags, fused parts or gaps Y171H/I448T/Q492K limits assumed, other chains not shown) above
Put plainly: ITC titration against IR485 pre-complexed with a 10-fold molar ratio of IGF-1R αCT peptide. The class given is binding. The following applies: 25° C., IR485 + 10 × IGF1R-αCT, mean of three ± SEM. The procedure: as §1, with “Porcine insulin (Sigma-Aldrich, USA) was prepared in a zinc-free-form (termed ZFP-insulin) by extensive dialysis against 0.1% (v/v) acetic acid followed by lyophilization.” left out
as §2, §3

Where two headings read alike, the source gives them in different places. Bridge positions count the residues as written; N and C are the ends. Ends that are not written are not given here. Peptide text beside a SMILES is read from it. Bounds are passed on as bounds.

The values below come from patent US8666718B2, “Structure of the C-terminal region of the insulin receptor α-chain and of the insulin-like growth factor receptor α-chain” (The Walter and Eliza Hall Institute of Medical Research, priority 2009, dated 2014).

T1 sequence (P06213 with tags, fused parts or gaps Y171H/I448T/Q492K): as the sequence (P06213 with tags, fused parts or gaps Y171H/I448T/Q492K limits assumed, other chains not shown) above

One may read the Kd as a measure of binding affinity in units of concentration. Regarding `CC(C)C[C@H](NC(=O)[C@H](CCC(N)=O)NC(=O)[C@H](CCCNC(=N)N)NC(=O)[C@H](CCC(=O)O)NC(=O)[C@H](Cc1ccccc1)NC(=O)[C@H](Cc1c[nH]c2ccccc12)NC(=O)[C@H](CC(=O)O)NC(=O)[C@H](Cc1ccc(O)cc1)NC(=O)[C@H](Cc1ccccc1)NC(=O)[C@H](CO)NC(=O)[C@H](CCC(=O)O)NC(=O)[C@H](CC(=O)O)NC(=O)[C@H](CC(C)C)NC(=O)[C@H](CO)NC(=O)CN)C(=O)NCC(=O)O` [S519C16], the dissociation constant (Kd) in assay [1] stood at 0.0026 ± 0.0007 µM. In assay [1] (ITC, 25° C.), the “ΔH^0” value was -14.6 ± 0.96 kcal/mol and the “−TΔS^0” value is 2.87 ± 0.96 kcal/mol. In assay [2], the “ΔH^0” value was -7.89 ± 0.48 kcal/mol and the “−TΔS^0” value is -2.63 ± 0.72 kcal/mol.
Turning to `CC(C)C[C@H](NC(=O)[C@@H](N)CO)C(=O)N[C@@H](CCC(=O)O)C(=O)N[C@@H](CCC(=O)O)C(=O)N[C@@H](CCC(=O)O)C(=O)N[C@@H](Cc1c[nH]c2ccccc12)C(=O)N[C@@H](C)C(=O)N[C@@H](CCC(N)=O)C(=O)N[C@H](C(=O)N[C@@H](CCC(=O)O)C(=O)N[C@H]1CSSC[C@@H](C(=O)N2CCC[C@H]2C(=O)N[C@@H](CO)C(=O)O)NC(=O)CNC(=O)[C@H](CCCNC(=N)N)NC(=O)CNC(=O)[C@H](Cc2ccc(O)cc2)NC(=O)[C@H](C(C)C)NC(=O)[C@H](CCC(=O)O)NC1=O)C(C)C` [S519N20] (H-SLEEEWAQVECEVYGRGCPS-OH; disulfide 11-18), the Kd in assay [1] was over 1000 µM.
Take `CC(C)C[C@H](NC(=O)[C@H](CCC(N)=O)NC(=O)[C@H](CCCNC(=N)N)NC(=O)[C@H](CCC(=O)O)NC(=O)[C@H](Cc1ccccc1)NC(=O)[C@H](Cc1c[nH]c2ccccc12)NC(=O)[C@H](CC(=O)O)NC(=O)[C@H](Cc1ccc(O)cc1)NC(=O)[C@H](Cc1ccccc1)NC(=O)[C@H](CO)NC(=O)[C@H](CCC(=O)O)NC(=O)[C@H](CC(=O)O)NC(=O)[C@H](CC(C)C)NC(=O)[C@H](CO)NC(=O)CNC(=O)[C@H](CO)NC(=O)[C@@H]1CCCN1C(=O)[C@@H]1CSSC[C@H](NC(=O)[C@H](CCC(=O)O)NC(=O)[C@@H](NC(=O)[C@H](CCC(N)=O)NC(=O)[C@H](C)NC(=O)[C@H](Cc2c[nH]c3ccccc23)NC(=O)[C@H](CCC(=O)O)NC(=O)[C@H](CCC(=O)O)NC(=O)[C@H](CCC(=O)O)NC(=O)[C@H](CC(C)C)NC(=O)[C@@H](N)CO)C(C)C)C(=O)N[C@@H](CCC(=O)O)C(=O)N[C@@H](C(C)C)C(=O)N[C@@H](Cc2ccc(O)cc2)C(=O)NCC(=O)N[C@@H](CCCNC(=N)N)C(=O)NCC(=O)N1)C(=O)NCC(=O)O` [S519] (H-SLEEEWAQVECEVYGRGCPSGSLDESFYDWFERQLG-OH; disulfide 11-18; N-terminus and C-terminus assumed): the Kd in assay [1] was 0.011 ± 0.003 µM; in assay [3], 0.02 nM. Besides, the “ΔH^0” value in assay [1] (ITC, 25° C.) was -16.5 ± 1.4 kcal/mol. Besides, the “−TΔS^0” value in assay [1] (ITC, 25° C.) was found to be 5.74 ± 1.4 kcal/mol.
Regarding TFEDYLHNVVAVPRPS [IR-αCT.714A], in assay [1], the dissociation constant Kd was found to be 6.5 ± 1.7 µM.
TFEDYLHNVVFVPRPS [IR-αCT]: the dissociation constant (Kd) in assay [1] was 3.9 ± 1.1 µM; in assay [4] (interaction with ZFP-insulin, read-out: Kd (estimated, weaker than)), over 1000 µM; in assay [4] (sample ZFP-insulin 20 μM, titrant 200 μM, read-out: Kd) it was over 1000 µM.
As to VFENFLHNSIFVPRPE [IGF1R-αCT], the Kd in assay [1] is 17.6 ± 2.1 µM; in assay [5] (interaction with IGF-I, read-out: Kd (estimated, weaker than)), over 1000 µM; in assay [5] (sample IGF-I (printed IGF-IR) 20 μM, titrant 200 μM, read-out: Kd) it was over 1000 µM.
For the molecule “ZFP-insulin: Porcine insulin (Sigma-Aldrich) prepared in a zinc-free form by dialysis against acetic acid and lyophilization”, the Kd in assay [1] (ITC, 25° C., TBSA, sample IR485, mean of three experiments ± SEM, single-site model, read-out: Kd) is over 1000 µM; in assay [2] it was 0.017 ± 0.004 µM; in assay [6], 0.0057 ± 0.0011 µM.
